Test results: patent US20150352108A1, “AMINO-PYRIMIDINE COMPOUNDS AS INHIBITORS OF TBK1 AND/OR IKK EPSILON” (Alzheimer's Institute of America, priority 2009, published 2015)

Tests used:
TBK1 = molecular target: T1, TBK1 (Homo sapiens, UniProt Q9UHD2); assay: In-vitro TBK1 kinase assay ([γ33]ATP filter-plate); assay type: biochemical; conditions: text bins; read-out: IC50 for inhibition of the kinase activity of TBK1
T1 construct: His-tag; made in house; host or cells: Sf9 insect cells
T1 sequence (Q9UHD2 1-729): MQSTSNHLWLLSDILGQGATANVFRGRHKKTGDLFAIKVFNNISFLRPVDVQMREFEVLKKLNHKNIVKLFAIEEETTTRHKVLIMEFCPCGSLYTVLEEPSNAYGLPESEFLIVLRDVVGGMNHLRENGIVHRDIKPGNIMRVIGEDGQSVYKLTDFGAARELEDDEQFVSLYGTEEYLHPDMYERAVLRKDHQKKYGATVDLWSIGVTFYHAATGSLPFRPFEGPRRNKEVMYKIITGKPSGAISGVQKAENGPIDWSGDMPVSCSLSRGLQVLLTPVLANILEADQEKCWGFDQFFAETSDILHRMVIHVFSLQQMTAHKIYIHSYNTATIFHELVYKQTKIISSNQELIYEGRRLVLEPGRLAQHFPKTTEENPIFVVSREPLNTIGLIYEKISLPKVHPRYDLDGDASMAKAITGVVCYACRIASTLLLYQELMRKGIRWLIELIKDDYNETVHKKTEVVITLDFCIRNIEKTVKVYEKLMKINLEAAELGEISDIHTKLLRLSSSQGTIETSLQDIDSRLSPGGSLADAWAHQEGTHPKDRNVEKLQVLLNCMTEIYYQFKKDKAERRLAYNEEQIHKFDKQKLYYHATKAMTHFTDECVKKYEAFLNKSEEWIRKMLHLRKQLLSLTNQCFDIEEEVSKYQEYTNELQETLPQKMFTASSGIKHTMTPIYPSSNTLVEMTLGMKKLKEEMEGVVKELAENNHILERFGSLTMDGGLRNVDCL
How it was run: (§1)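 Phosphorylation of casein or myelin basic protein was counted by P-81 filter capture after 30-45 min reactions stopped with phosphoric acid, with counts normalized to DMSO after background subtraction. ATP was twice Km: 60 μM for TBK1 and 32 μM for IKKε, plus [γ33]ATP. Sf9-expressed His-tag enzymes were used at normal/sensitized levels of 0.1/0.02 μg/ml (TBK1) and 0.1/0.015 μg/ml (IKKε).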

IKKε = molecular target: T2, IKKε (Homo sapiens, UniProt Q14164); assay: In-vitro IKKε kinase assay ([γ33]ATP filter-plate); assay type: biochemical; conditions: text bins; read-out: IC50 for inhibition of the kinase activity of IKKε
T2 construct: His-tag; made in house; host or cells: Sf9 insect cells
T2 sequence (Q14164 1-716): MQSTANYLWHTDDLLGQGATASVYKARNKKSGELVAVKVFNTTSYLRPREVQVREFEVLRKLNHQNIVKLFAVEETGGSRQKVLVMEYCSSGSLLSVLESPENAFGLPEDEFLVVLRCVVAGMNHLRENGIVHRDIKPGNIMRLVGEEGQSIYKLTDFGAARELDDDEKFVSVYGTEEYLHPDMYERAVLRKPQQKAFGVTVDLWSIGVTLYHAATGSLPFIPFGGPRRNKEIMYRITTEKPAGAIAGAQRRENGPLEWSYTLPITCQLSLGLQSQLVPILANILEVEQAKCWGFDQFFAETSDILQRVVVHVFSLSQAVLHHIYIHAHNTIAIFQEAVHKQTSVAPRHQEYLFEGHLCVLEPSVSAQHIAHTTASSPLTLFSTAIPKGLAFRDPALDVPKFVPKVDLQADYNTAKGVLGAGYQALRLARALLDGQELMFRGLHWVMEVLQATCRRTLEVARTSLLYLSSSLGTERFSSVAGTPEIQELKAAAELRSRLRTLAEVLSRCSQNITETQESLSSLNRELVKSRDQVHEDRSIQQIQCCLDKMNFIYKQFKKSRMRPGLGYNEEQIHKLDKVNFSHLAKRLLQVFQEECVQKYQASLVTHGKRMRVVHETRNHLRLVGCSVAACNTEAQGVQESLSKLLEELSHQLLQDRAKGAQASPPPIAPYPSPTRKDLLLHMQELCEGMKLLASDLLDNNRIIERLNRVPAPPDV
How it was run: as §1

| Compound | IC50 (TBK1) | IC50 (IKKε) |
| --- | --- | --- |
| CS(=O)(=O)N1CCC(Oc2ccc(-c3ccnc(Nc4ccc(N5CCOCC5)cc4)n3)cc2C#N)C1 (centres unmarked) [Example 257, 2-{[1-(methylsulfonyl)pyrreolidin-3-yl]oxy}-5-(2-{[4-(morpholin-4-yl)phenyl]amino}pyrimidin-4-yl)benzonitrile] | 10 to 100 nM | 5 to 50 nM |
| COc1cc(Nc2nccc(-c3ccc(OC)c(C#N)c3)n2)cc(OC2CCN(C)CC2)c1 [Example 259, 2-Methoxy-5-[2-({3-methoxy-5-[(1-methylpiperidin-4-yl)oxy]phenyl}amino)pyrimidin-4-yl]benzonitrile] | 10 to 100 nM | 5 to 50 nM |
| COc1ccc(-c2ccnc(Nc3cccc(Cl)c3)n2)cc1C#N [Example 260, 5-{2-[(3-Chlorophenyl)amino]pyrimidin-4-yl}-2-methoxybenzonitrile] | 10 to 100 nM | 50 to 500 nM |
| COc1cc(Nc2nccc(-c3ccc(OC(C)C)c(C#N)c3)n2)cc(OC)c1 [Example 272, 5-{2-[(3,5-Dimethoxyphenyl)amino]pyrimidin-4-yl}-2-(propan-2-yloxy)benzonitrile] | 10 to 100 nM | 5 to 50 nM |
| COc1ccc(-c2ccnc(Nc3ccc(OCCN4CCOCC4)c(OC)c3)n2)cc1C#N [Example 273, 2-Methoxy-5-[2-({3-methoxy-4-[2-(morpholin-4-yl)ethoxy]phenyl}amino)pyrimidin-4-yl]benzonitrile] | 10 to 100 nM | 5 to 50 nM |
| CCOc1cccc(Nc2nccc(-c3cccc(C#N)c3)n2)c1 [Example 276, 3-{2-[(3-Ethoxyphenyl)amino]pyrimidin-4-yl}benzonitrile] | 100 to 500 nM | 50 to 500 nM |
| COCC(=O)Nc1cc(Nc2nccc(-c3ccc(OC)c(C#N)c3)n2)cc(OC)c1 [Example 278, N-(3-{[4-(3-Cyano-4-methoxyphenyl)pyrimidin-2-yl]amino}-5-methoxyphenyl)-2-methoxyacetamide] | 10 to 100 nM | 5 to 50 nM |
| COc1cc(NC(=O)N[C@H]2CC[C@H](O)CC2)cc(Nc2nccc(-c3ccc(OC)c(C#N)c3)n2)c1 [Example 280, 1-(3-{[4-(3-Cyano-4-methoxyphenyl)pyrimidin-2-yl]amino}-5-methoxyphenyl)-3-(trans-4-hydroxycyclohexyl) urea] | 10 to 100 nM | 5 to 50 nM |
| COc1ccc(-c2ccnc(Nc3ccc(S(=O)(=O)NCCO)c(OC)c3)n2)cc1C#N [Example 281, 4-{[4-(3-Cyano-4-methoxyphenyl)pyrimidin-2-yl]amino}-N-(2-hydroxyethyl)-2-methoxybenzene-sulfonamide] | 10 to 100 nM | 5 to 50 nM |
| CN(C)c1ccc(Nc2nccc(-c3cccc(C#N)c3)n2)cc1 [Example 286, 3-(2-{[4-(Dimethylamino)phenyl]amino}pyrimidin-4-yl)benzonitrile] | 100 to 500 nM | 50 to 500 nM |
| COc1cc(Nc2nccc(-c3ccc(OC4CCN(C(=O)[C@H](C)O)CC4)c(C#N)c3)n2)ccc1C(=O)NCCN(C)C [Example 287, 4-({4-[3-cyano-4-({1-[(2S)-2-hydroxypropanoyl]piperidin-4-yl}oxy)phenyl]pyrimidin-2-yl}amino)-N-[2-(dimethylamino)ethyl]-2-methoxybenzamide] | < 10 nM | < 5 nM |
| COc1ccc(-c2ccnc(Nc3ccc(OC4CCN(C)CC4)cc3)n2)cc1C#N [Example 288, 2-Methoxy-5-[2-({4-[(1-methylpiperidin-4-yl)oxy]phenyl}amino)pyrimidin-4-yl]benzonitrile] | < 10 nM | 5 to 50 nM |
| CN(C)CCOc1ccc(Nc2nccc(-c3cccc(C#N)c3)n2)cc1 [Example 291, 3-[2-({4-[2-(Dimethylamino)ethoxy]phenyl}amino)pyrimidin-4-yl]benzonitrile] | 10 to 100 nM | 50 to 500 nM |
| COc1cc(NC(=O)N2CC[C@H](O)C2)cc(Nc2nccc(-c3ccc(OC)c(C#N)c3)n2)c1 [compound 294, (3S)-N-(3-{[4-(3-Cyano-4-methoxyphenyl)pyrimidin-2-yl]amino}-5-methoxyphenyl)-3-hydroxypyrrolidine-1-carboxamide] | 10 to 100 nM | 5 to 50 nM |
| COc1cc(NC(=O)NCCO)cc(Nc2nccc(-c3ccc(OC)c(C#N)c3)n2)c1 [compound 295, 1-(3-{[4-(3-Cyano-4-methoxyphenyl)pyrimidin-2-yl]amino}-5-methoxyphenyl)-3-(2-hydroxyethyl)urea] | 10 to 100 nM | 5 to 50 nM |
| COc1cc(Nc2nccc(-c3ccc(OCCO)c(C#N)c3)n2)ccc1N1CCNC(=O)C1 [compound 296, 2-(2-Hydroxyethoxy)-5-(2-{[3-methoxy-4-(3-oxopiperazin-1-yl)phenyl]amino}pyrimidin-4-yl)benzonitrile] | < 10 nM | 5 to 50 nM |
| COc1ccc(-c2ccnc(Nc3ccc(N4CCN(C)CC4)cc3)n2)cc1C#N [compound 297, 2-Methoxy-5-(2-{[4-(4-methylpiperazin-1-yl)phenyl]amino}pyrimidin-4-yl)benzonitrile] | < 10 nM | 5 to 50 nM |

Further lines, results first:

| IC50 (TBK1) | IC50 (IKKε) | Compound |
| --- | --- | --- |
| < 10 nM | 5 to 50 nM | CN1CCN(c2ccc(Nc3nccc(-c4ccc(OC5CCN(C(=O)CO)C5)c(C#N)c4)n3)cc2)CC1 (centres unmarked) [Example 254, 2-{[1-(hydroxyacetyl)pyrrolidin-3-yl]oxy}-5-(2-{[4-(4-methylpiperazin-1-yl)phenyl]amino}pyrimidin-4-yl)benzonitrile] |
| < 10 nM | < 5 nM | N#Cc1cc(-c2ccnc(Nc3ccc(N4CCOCC4)cc3)n2)ccc1OC1CCOC1 (centres unmarked) [Example 261, 5-(2-{[4-(Morpholin-4-yl)phenyl]amino}pyrimidin-4-yl)-2-(tetrahydrofuran-3-yloxy)benzonitrile] |
| < 10 nM | 5 to 50 nM | COc1ccc(-c2ccnc(Nc3ccc(N4CCOCC4)cc3)n2)cc1C#N [Example 266, 2-Methoxy-5-(2-{[4-(morpholin-4-yl)phenyl]amino}pyrimidin-4-yl)benzonitrile] |
| < 10 nM | 5 to 50 nM | N#Cc1cc(-c2ccnc(Nc3ccc(N4CCOCC4)cc3)n2)ccc1OC1CCN(C(=O)CN)CC1 [Example 268, 2-[(1-Glycylpiperidin-4-yl)oxy]-5-(2-{[4-(morpholin-4-yl)phenyl]amino}pyrimidin-4-yl)benzonitrile] |
| < 10 nM | 5 to 50 nM | Cc1ccc(-c2ccnc(Nc3ccc(N4CCOCC4)cc3)n2)cc1C#N [Example 269, 2-Methyl-5-(2-{[4-(morpholin-4-yl)phenyl]amino}pyrimidin-4-yl)benzonitrile] |
| < 10 nM | < 5 nM | COc1cc(Nc2nccc(-c3ccc(OC4CCOCC4)c(C#N)c3)n2)ccc1C(=O)NCc1cccnc1 [Example 275, 4-({4-[3-cyano-4-(tetrahydro-2H-pyran-4-yloxy)phenyl]pyrimidin-2-yl}amino)-2-methoxy-N-(pyridin-3-ylmethyl)benzamide] |
| < 10 nM | 5 to 50 nM | CN1CCN(S(=O)(=O)c2ccc(Nc3nccc(-c4ccc(OC5CCOCC5)c(C#N)c4)n3)cc2)CC1 [Example 284, 5-[2-({4-[(4-methylpiperazin-1-yl)sulfonyl]phenyl}amino)pyrimidin-4-yl]-2-(tetrahydro-2H-pyran-4-yloxy)benzonitrile] |
| < 10 nM | 5 to 50 nM | N#Cc1cc(-c2ccnc(Nc3ccc(N4CCOCC4)cc3)n2)ccc1NN1CCOCC1 [Example 285, 2-(morpholin-4-ylamino)-5-(2-{[4-(morpholin-4-yl)phenyl]amino}pyrimidin-4-yl)benzonitrile] |
